Measurements from ChEMBL document CHEMBL1149904, “Isolation and structure determination of malevamide E, a dolastatin 14 analogue, from the marine cyanobacterium Symploca laete-viridis” (J Nat Prod, 2008).

System: HEK293
Assay: Inhibition of Ca2+ release activated Ca2+ channels in thapsigarin-treated HEK cells
Assay type: cell-based
Conditions: Homo sapiens

CNC(=O)C[C@H]1C(=O)N(C)[C@@H](C)C(=O)OC(C)CCC/C=C/CCC(OC)C/C=C/C=C(\C)C(=O)N[C@H](C(C)C)C(=O)N(C)[C@@H](Cc2ccccc2)C(=O)N(C)[C@@H](C(C)C)C(=O)N(C)[C@@H](C(C)C)C(=O)N2CCC[C@H]2C(=O)N1C (stereo partly specified)
Activity: Dose-dependent effect
